From US9828379B2 (priority 2013, dated 2017) come the findings set out here.

As usually defined, the IC50 is the concentration needed to halve the response being measured. As a reminder, the inhibition is the relative decrease from the control value, in per cent.

The structures appear in SMILES notation. Where only a bound is given, the exact number is not on record here.

The target in assay [1] is T1, ABHD6 (Mus musculus, UniProt Q8R2Y0).
T1 sequence (Q8R2Y0 1-336): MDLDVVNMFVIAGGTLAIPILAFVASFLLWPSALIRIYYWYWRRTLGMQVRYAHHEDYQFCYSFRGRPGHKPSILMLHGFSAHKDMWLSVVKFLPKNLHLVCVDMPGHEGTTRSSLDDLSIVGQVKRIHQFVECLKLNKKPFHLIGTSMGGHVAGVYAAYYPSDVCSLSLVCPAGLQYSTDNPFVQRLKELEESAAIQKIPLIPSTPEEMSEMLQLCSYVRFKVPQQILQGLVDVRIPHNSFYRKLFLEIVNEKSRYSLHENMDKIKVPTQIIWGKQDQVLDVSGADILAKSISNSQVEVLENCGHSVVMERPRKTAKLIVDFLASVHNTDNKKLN
As to the kind of experiment: biochemical. The note with it: in vitro competitive ABPP.

In assay [2] the target is T2, FAAH (Mus musculus, UniProt O08914).
T2 sequence (O08914 1-579): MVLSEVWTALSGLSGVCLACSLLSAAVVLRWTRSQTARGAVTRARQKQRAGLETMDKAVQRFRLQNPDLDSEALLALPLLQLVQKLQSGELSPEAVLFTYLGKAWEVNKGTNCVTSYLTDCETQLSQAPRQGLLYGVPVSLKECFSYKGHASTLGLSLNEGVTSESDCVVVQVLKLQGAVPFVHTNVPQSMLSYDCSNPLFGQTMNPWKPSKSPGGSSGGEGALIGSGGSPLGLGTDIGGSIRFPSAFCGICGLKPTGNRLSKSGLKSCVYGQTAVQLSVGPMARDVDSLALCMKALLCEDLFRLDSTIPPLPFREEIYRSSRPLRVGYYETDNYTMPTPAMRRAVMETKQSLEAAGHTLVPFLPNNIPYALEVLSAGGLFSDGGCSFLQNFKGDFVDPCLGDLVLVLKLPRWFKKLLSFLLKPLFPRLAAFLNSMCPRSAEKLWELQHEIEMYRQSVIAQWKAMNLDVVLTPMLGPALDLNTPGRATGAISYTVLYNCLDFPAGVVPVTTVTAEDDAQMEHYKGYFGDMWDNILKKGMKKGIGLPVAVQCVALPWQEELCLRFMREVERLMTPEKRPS
The assay can be described thus: biochemical. The following applies: in vitro competitive ABPP.

Assay [3] has as its target T3, MAGL (Mus musculus, UniProt O35678).
T3 sequence (O35678 1-303): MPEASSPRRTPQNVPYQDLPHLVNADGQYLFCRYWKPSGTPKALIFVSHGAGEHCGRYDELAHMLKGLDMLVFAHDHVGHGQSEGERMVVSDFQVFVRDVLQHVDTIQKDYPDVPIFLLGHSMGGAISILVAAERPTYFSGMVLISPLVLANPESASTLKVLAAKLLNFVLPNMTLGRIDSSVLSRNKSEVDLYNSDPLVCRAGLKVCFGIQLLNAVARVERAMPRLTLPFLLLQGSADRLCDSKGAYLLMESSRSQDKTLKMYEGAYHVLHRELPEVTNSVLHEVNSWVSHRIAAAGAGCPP
As to the kind of experiment: biochemical. The following applies: mouse; in vitro competitive ABPP; read-out: Mouse (IC50 value, nM) MAGL.

Another assay concerns the target T4, Mouse brain MAGL (Mus musculus, UniProt O35678).
T4 construct: from tissue; host or cells: brain of wild-type C57Bl/6J mice dosed by oral gavage
T4 sequence (O35678 1-303): T3 sequence (O35678 1-303)
The assay can be described thus: Mouse brain proteomes from inhibitor treated mice (oral gavage, ABPP analysis). The following applies: p.o., sacrificed 4 h following administration. It counts as in vivo. The method, then:
After 30 min, FP—Rh (1.0 μL, 50 μM in DMSO) was added and the mixture was incubated for another 30 min at 37° C. Reactions were quenched with SDS loading buffer (50 μL-4×) and run on SDS-PAGE. Following gel imaging, serine hydrolase activity was determined by measuring fluorescent intensity of gel bands corresponding to MAGL, ABHD6 and FAAH using ImageJ 1.43 u software.
Inhibitors were administered to wild-type C57Bl/6J by oral gavage in a vehicle of polyethylene glycol. Each animal was sacrificed 4 h following administration and brain proteomes were prepared and analyzed according to previously established methods (See Niphakis, M. J., et al. (2011) ACS Chem. Neurosci. and Long, J. Z., et al. Nat. Chem. Biol. 5:37-44).

Assay [4] deals with T1, ABHD6. As to the kind of experiment: In vitro competitive activity-based protein profiling (Table 2, % inhibition at 1 μM). It counts as biochemical. The following applies: read-out: % Inhibition at 1 μM ABHD6.
Assay [5] has as its target T2, FAAH. The assay is described as above. The assay is classed as biochemical. The note with it: read-out: % Inhibition at 1 μM FAAH.
The target of assay [6] is T3, MAGL. The description is as above. It counts as biochemical. The following applies: read-out: % Inhibition at 1 μM MAGL. The method, then:
After 30 min, FP—Rh (1.0 μL, 50 μM in DMSO) was added and the mixture was incubated for another 30 min at 37° C. Reactions were quenched with SDS loading buffer (50 μL-4×) and run on SDS-PAGE.
Cell lysates were diluted with mock proteomes for use in competitive ABPP experiments.

For the molecule `CC(=O)N1CCN(c2cccc(CN3CC4CN(C(=O)OC(C(F)(F)F)C(F)(F)F)CC4C3)c2C)CC1` (stereo not shown) [Example 152, 1,1,1,3,3,3-hexafluoropropan-2-yl 5-[[3-(4-acetylpiperazin-1-yl)-2-methylphenyl]methyl]-octahydropyrrolo[3,4-c]pyrrole-2-carboxylate], the IC50 at ABHD6 [1] is 1000 to 10000 nM; on FAAH [2], 1000 to 10000 nM; on MAGL [3], less than 100 nM. Besides, the inhibition at 5 mg/kg on Mouse brain MAGL was not above 25%. Moreover, the inhibition at 1 µM on ABHD6 [4] was 25 to 75%; at FAAH [5], less than 25%; at MAGL [6] it was more than 75%.
Regarding `Cc1ccc(CN2CC3CN(C(=O)OC(C(F)(F)F)C(F)(F)F)CC3C2)c(-c2ccccc2)c1` (stereo not shown) [Example 207, 1,1,1,3,3,3-hexafluoropropan-2-yl 5-((5-methyl-[1,1′-biphenyl]-2-yl)methyl)hexahydropyrrolo[3,4-c]pyrrole-2(1H)-carboxylate], the IC50 was 1000 to 10000 nM on ABHD6 [1], 1000 to 10000 nM on FAAH [2] and 100 to 1000 nM at MAGL [3]. The inhibition at 5 mg/kg at Mouse brain MAGL is not below 75%. Besides, the values for the inhibition at 1 µM on ABHD6 [4], at FAAH [5] and on MAGL [6] were less than 25%, less than 25% and more than 75%, respectively.
For the molecule `O=C(OC(C(F)(F)F)C(F)(F)F)N1CC2CN(Cc3cccc(Cl)c3N3CCC4(CCOC4)C3)CC2C1` (stereo not shown) [Example 42, 1,1,1,3,3,3-Hexafluoropropan-2-yl 5-[(3-chloro-2-[2-oxa-7-azaspiro[4.4]nonan-7-yl]phenyl)methyl]-octahydropyrrolo[3,4-c]pyrrole-2-carboxylate], the half-inhibitory concentration (IC50) on ABHD6 [1] is 1000 to 10000 nM; at FAAH [2], 1000 to 10000 nM; on MAGL [3] it was less than 100 nM. The inhibition at 5 mg/kg against Mouse brain MAGL was in the range of 25 to 75%. Further, the inhibition at 1 µM is less than 25% at ABHD6 [4], less than 25% at FAAH [5] and more than 75% at MAGL [6].
On to `CCn1cc(CN2CC3CN(C(=O)OC(C(F)(F)F)C(F)(F)F)CC3C2)c(-c2ccccc2N2CCC2)n1` (stereo not shown) [Example 63, 1,1,1,3,3,3-Hexafluoropropan-2-yl 5-([3-[2-(azetidin-1-yl)phenyl]-1-ethyl-1H-pyrazol-4-yl]methyl)-octahydropyrrolo[3,4-c]pyrrole-2-carboxylate], for which the IC50 at ABHD6 [1] is 100 to 1000 nM; at FAAH [2], more than 10000 nM; at MAGL [3], less than 100 nM. The same molecule returned an inhibition at 5 mg/kg against Mouse brain MAGL not below 75%. Moreover, the inhibition at 1 µM is 25 to 75% at ABHD6 [4], less than 25% on FAAH [5] and more than 75% on MAGL [6].
Regarding `O=C(OC(C(F)(F)F)C(F)(F)F)N1CC2CN(Cc3ccc(Cl)cc3N3CCC(C(=O)N4CCCC4)CC3)CC2C1` (stereo not shown) [Example 37, 1,1,1,3,3,3-Hexafluoropropan-2-yl 5-[(4-chloro-2-[4-[(pyrrolidin-1-yl)carbonyl]piperidin-1-yl]phenyl)methyl]-octahydropyrrolo[3,4-c]pyrrole-2-carboxylate], the 50% inhibitory concentration (IC50) is 1000 to 10000 nM at ABHD6 [1], 1000 to 10000 nM at FAAH [2] and less than 100 nM at MAGL [3]. This molecule registered an inhibition at 5 mg/kg on Mouse brain MAGL not above 25%. Moreover, the values for the inhibition at 1 µM on ABHD6 [4], at FAAH [5] and on MAGL [6] were less than 25%, 25 to 75% and more than 75%, respectively.
As to `CS(=O)(=O)N1CCN(c2cc(Cl)ccc2CN2CC3CN(C(=O)OC(C(F)(F)F)C(F)(F)F)CC3C2)CC1` (stereo not shown) [Example 36, 1,1,1,3,3,3-Hexafluoropropan-2-yl 5-[[4-chloro-2-(4-methanesulfonylpiperazin-1-yl)phenyl]methyl]-octahydropyrrolo[3,4-c]pyrrole-2-carboxylate], the IC50 is 100 to 1000 nM at ABHD6 [1], 1000 to 10000 nM on FAAH [2] and less than 100 nM on MAGL [3]. The same molecule returned an inhibition at 5 mg/kg on Mouse brain MAGL of 25 to 75%. The values for the inhibition at 1 µM on ABHD6 [4], on FAAH [5] and on MAGL [6] were 25 to 75%, less than 25% and more than 75%, respectively.
With `CCn1cc(CN2CC3CN(C(=O)OC(C(F)(F)F)C(F)(F)F)CC3C2)c(C(=O)NCc2ccccc2)n1` (stereo not shown) [Example 78, 1,1,1,3,3,3-Hexafluoropropan-2-yl 5-((3-(benzylcarbamoyl)-1-ethyl-1H-pyrazol-4-yl)methyl)hexahydropyrrolo[3,4-c]pyrrole-2(1H)-carboxylate], the 50% inhibitory concentration (IC50) at ABHD6 [1] was 1000 to 10000 nM; at FAAH [2], more than 10000 nM; at MAGL [3], less than 100 nM. The molecule also displayed an inhibition at 5 mg/kg against Mouse brain MAGL of 25 to 75%. The inhibition at 1 µM on ABHD6 [4] was 25 to 75%; on FAAH [5], less than 25%; on MAGL [6], more than 75%.
For the molecule `O=C(OC(C(F)(F)F)C(F)(F)F)N1CC2CN(Cc3cc(CN4CCCC4)ccc3OC(F)(F)F)CC2C1` (stereo not shown) [Example 190, 1,1,1,3,3,3-hexafluoropropan-2-yl 5-(5-(pyrrolidin-1-ylmethyl)-2-(trifluoromethoxy)benzyl)hexahydropyrrolo[3,4-c]pyrrole-2(1H)-carboxylate], the IC50 at ABHD6 [1] lay within 1000 to 10000 nM; at FAAH [2], 1000 to 10000 nM; on MAGL [3] it was 100 to 1000 nM. The inhibition at 1 µM was less than 25% on ABHD6 [4], less than 25% on FAAH [5] and more than 75% at MAGL [6].
Consider `CC1COCCN1c1cc(Cl)ccc1CN1CC2CN(C(=O)OC(C(F)(F)F)C(F)(F)F)CC2C1` (stereo not shown) [Example 20, 1,1,1,3,3,3-Hexafluoropropan-2-yl 5-[[4-chloro-2-(3-methylmorpholin-4-yl)phenyl]methyl]-octahydropyrrolo[3,4-c]pyrrole-2-carboxylate], for which the half-maximal inhibitory concentration (IC50) at ABHD6 [1] is 1000 to 10000 nM; on FAAH [2], 1000 to 10000 nM; on MAGL [3] it was less than 100 nM. The inhibition at 1 µM is less than 25% on ABHD6 [4], less than 25% at FAAH [5] and more than 75% on MAGL [6].
For `O=C(ON1C(=O)CCC1=O)N1CC2CN(Cc3ccccc3-c3ccccc3)CC2C1` (stereo not shown) [Example 87, 2,5-Dioxopyrrolidin-1-yl-5-[(2-phenylphenyl)methyl]-octahydropyrrolo[3,4-c]pyrrole-2-carboxylate], the figures for the IC50 at ABHD6 [1], at FAAH [2] and on MAGL [3] were 1000 to 10000 nM, 100 to 1000 nM and 100 to 1000 nM, respectively. In addition, the inhibition at 1 µM at ABHD6 [4] was 25 to 75%; on FAAH [5] it was 25 to 75%; at MAGL [6], more than 75%.
For `Cc1c(CN2CC3CN(C(=O)OC(C(F)(F)F)C(F)(F)F)CC3C2)cccc1N1CCN(S(C)(=O)=O)CC1` (stereo not shown) [Example 150, 1,1,1,3,3,3-hexafluoropropan-2-yl 5-[[3-(4-methanesulfonylpiperazin-1-yl)-2-methylphenyl]methyl]-octahydropyrrolo[3,4-c]pyrrole-2-carboxylate], the values for the IC50 on ABHD6 [1], at FAAH [2] and at MAGL [3] were 1000 to 10000 nM, 1000 to 10000 nM and less than 100 nM, respectively. The results for the inhibition at 1 µM on ABHD6 [4], at FAAH [5] and on MAGL [6] were less than 25%, 25 to 75% and more than 75%, respectively.
